Experiments:
Format in all cases: biochemical
[1] = biological target: T1, S. pombe poly(U) polymerase (Schizosaccharomyces pombe, UniProt O13833); assay: RNA synthesis by S. pombe poly(U) polymerase with competitive inhibitor (non-hydrolyzable) nucleotide; settings: with UTP, 30 minutes at 37° C.
T1 sequence (O13833 1-405): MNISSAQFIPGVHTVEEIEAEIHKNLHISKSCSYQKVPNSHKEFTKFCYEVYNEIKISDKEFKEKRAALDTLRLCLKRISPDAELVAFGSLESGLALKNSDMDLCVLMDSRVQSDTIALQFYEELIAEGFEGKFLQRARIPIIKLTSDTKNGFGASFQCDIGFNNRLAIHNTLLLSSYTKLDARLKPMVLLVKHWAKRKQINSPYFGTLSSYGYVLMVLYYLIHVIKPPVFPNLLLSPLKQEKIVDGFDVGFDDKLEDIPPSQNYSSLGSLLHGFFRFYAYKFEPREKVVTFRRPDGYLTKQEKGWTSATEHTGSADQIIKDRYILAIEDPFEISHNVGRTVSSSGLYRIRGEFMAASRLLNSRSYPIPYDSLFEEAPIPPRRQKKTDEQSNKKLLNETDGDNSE

[2] = biological target: T2, S. pombe Cid1 poly(U) polymerase (Schizosaccharomyces pombe, UniProt O13833); assay: Uncontrolled extension with natural and modified nucleotides by S. pombe Cid1 poly(U) polymerase (gel, RNA kinetic assay); settings: for incorporation of natural ribonucleotides by poly(U) polymerase: 1.0 mM nucleotide, 5′-Cy5-poly rU-15-mer, 37° C., 30 minutes, gel and RNA kinetic assay; for effect of inorganic pyrophosphatase supplementation on RNA synthesis by poly(U) polymerase: 1 mM ribonucleotide, 0.1 units Yeast Inorganic Pyrophosphatase
T2 construct: purchased NEB M0337
T2 sequence (O13833 1-405): T1 sequence (O13833 1-405)

[3] = biological target: T3, S. cerevisiae poly(A) polymerase (Saccharomyces cerevisiae, UniProt P29468); assay: Modified nucleotide incorporation by S. cerevisiae poly(A) polymerase, denaturing gel electrophoresis; settings: 37° C., 60 minutes; for incorporation by S. cerevisiae poly(A) polymerase: 2.5 mM modified nucleotide, 0.5 mM Mn^2+, 900 units enzyme
T3 construct: purchased Thermo 74225Z25KU
Description: FIGS. 4A and 4B. […] All 2′-modified ribonucleotides were at a final concentration of 2.5 mM and incubated at 37° C. for 60 minutes. The control reaction consisted of all reaction components except nucleotide. […] The negative reaction consisted of all reaction components except nucleotide.
The efficiency of S. cerevisiae poly(A) polymerase (Thermo 74225Z25KU) for incorporating of several 2′-modified was evaluated. The modified nucleotides evaluated included the following: 2′-F-rATP (Trilink N-1007), 2′-Azido-rATP (Trilink N-1045), 2′-Amino-rATP (Trilink N-1046), and 2′-O-Methyl rATP (Trilink N-1015). Extension reactions were supplemented with the appropriate buffers, which included 0.5 mM Mn^2+, 200 pmol of the initiator RNA oligonucleotide, 2.5 mM modified nucleotide, and 900 units of enzyme. Reactions were incubated at 37° C. for 60 minutes before being analyzed with denaturing gel electrophoresis. According to the gel (FIG. 4A), under these reactions conditions S. cerevisiae poly(A) polymerase incorporates all 2′-modified nucleotides (2′-Amino-, 2′-O-Methyl-, 2′-F-, and 2′-Azido-rATP). […] Under the same reaction conditions, the reversible terminator nucleoside triphosphate, 2′-O-allyl-rATP, was tested for controlled incorporation by S. cerevisiae poly(A) polymerase.

[4] = biological target: T1, S. pombe poly(U) polymerase; assay: Controlled (n+1) extension with reversible terminator nucleotides by S. pombe poly(U) polymerase; settings: 37° C.
[5] = biological target: T4, N-terminus His^6-tagged S. pombe poly(U) polymerase (Schizosaccharomyces pombe, UniProt O13833); assay: Activity of expressed N-terminus His6-tagged S. pombe poly(U) polymerase with 2′-O-allyl-ATP; settings: 1 mM nucleotide, approximately 100 pmol of initiator oligonucleotide, 10 μL, 30 seconds at 37° C.
T4 construct: made in house; host or cells: E. coli (T7 Express)
T4 sequence (O13833 1-405): T1 sequence (O13833 1-405)
Description: FIGS. 13A and 13B. […] The expected molecular weight of the expressed N-terminus His^6-tagged S. pombe poly(U) polymerase is approximately 45 kDa. […] Reactions were supplemented with increasing amounts of initiator oligonucleotide (from 20 pmol to 1000 pmol) to determine the relative conversion rates as a function of initiator oligonucleotide material as performed by concentrated N-terminus His^6-tagged S. pombe poly(U) polymerase. All reaction volumes were 10 μL, the initiator oligonucleotide was a poly-rU-15-mer labeled with a 5′-Cy5 fluorophore. Reactions were incubated at 37° C. for 30 seconds. The control reaction contained all reaction components (initiator oligonucleotide was 20 pmol) with the exception of reversible terminator nucleotide.
The primary sequence for S. pombe poly(U) polymerase (UniProtKB—O13833) was modified by adding the amino acids “[…]” to the N-terminus of the enzyme. These amino acids encode for an N-terminus His^6-tag with the appropriate linkers. Using the protocol outlined in the material and methods section, N-terminus His^6-tagged S. pombe poly(U) polymerase was expressed, purified, and concentrated to a small volume. […] Using the N-terminus His^6-tagged S. pombe poly(U) polymerase, it was determined that approximately 100 pmol of initiator oligonucleotide can be converted to the (+1) product with a conversion rate of >99% (FIG. 13B). […]

Human polymerase μ R387K = biological target: T5, Human polymerase μ R387K (Homo sapiens, UniProt Q9NP87, R387K); assay: dATP / rATP incorporation by polymerase μ R387K, denaturing gel electrophoresis; settings: 0.25 mM Mn^2+ and Mg^2+; for incorporation by polymerase μ R387K: poly dT-15-mer initiator
T5 construct: His-tag (pET-28c vector); made in house; host or cells: E. coli (T7 Express)
Description: FIGS. 3A to 3C. […] Denaturing gel electrophoresis analysis of dATP incorporation (FIG. 3B) and rATP incorporation (FIG. 3C) at nucleotide concentrations of 200-50 μM and 5.0-0.62 mM for dATP and rATP, respectively. These reactions were supplemented with 0.25 mM Mn^2+ and Mg^2+. The control reaction consisted of all reaction components except nucleotide. For all reactions, the initiator oligonucleotide was a HPLC-purified poly dT-15-mer.
Human polymerase μ R387K was expressed and purified as described in the materials and methods. Because it was unknown under which reaction conditions polymerase μ R387K functioned optimally, several reaction parameters were initially evaluated. […] Thus, polymerase p R387K, a confirmed DNA/RNA-directed polymerase, is useful for controlled enzymatic RNA synthesis.

T5 sequence (Q9NP87 whole entry R387K): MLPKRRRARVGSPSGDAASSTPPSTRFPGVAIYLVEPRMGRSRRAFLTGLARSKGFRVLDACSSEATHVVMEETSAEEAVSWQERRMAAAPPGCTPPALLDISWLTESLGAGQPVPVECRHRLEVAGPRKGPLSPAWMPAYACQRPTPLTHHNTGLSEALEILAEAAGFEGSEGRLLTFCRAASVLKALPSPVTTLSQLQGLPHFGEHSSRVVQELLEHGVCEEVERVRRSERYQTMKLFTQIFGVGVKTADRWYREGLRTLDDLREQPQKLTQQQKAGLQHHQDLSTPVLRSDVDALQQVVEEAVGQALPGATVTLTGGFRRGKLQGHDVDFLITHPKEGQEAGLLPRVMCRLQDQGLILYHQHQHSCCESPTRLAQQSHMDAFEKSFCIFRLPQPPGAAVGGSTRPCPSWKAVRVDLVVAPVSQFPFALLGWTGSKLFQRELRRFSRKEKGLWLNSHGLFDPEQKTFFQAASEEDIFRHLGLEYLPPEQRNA
T3 sequence (P29468 whole entry): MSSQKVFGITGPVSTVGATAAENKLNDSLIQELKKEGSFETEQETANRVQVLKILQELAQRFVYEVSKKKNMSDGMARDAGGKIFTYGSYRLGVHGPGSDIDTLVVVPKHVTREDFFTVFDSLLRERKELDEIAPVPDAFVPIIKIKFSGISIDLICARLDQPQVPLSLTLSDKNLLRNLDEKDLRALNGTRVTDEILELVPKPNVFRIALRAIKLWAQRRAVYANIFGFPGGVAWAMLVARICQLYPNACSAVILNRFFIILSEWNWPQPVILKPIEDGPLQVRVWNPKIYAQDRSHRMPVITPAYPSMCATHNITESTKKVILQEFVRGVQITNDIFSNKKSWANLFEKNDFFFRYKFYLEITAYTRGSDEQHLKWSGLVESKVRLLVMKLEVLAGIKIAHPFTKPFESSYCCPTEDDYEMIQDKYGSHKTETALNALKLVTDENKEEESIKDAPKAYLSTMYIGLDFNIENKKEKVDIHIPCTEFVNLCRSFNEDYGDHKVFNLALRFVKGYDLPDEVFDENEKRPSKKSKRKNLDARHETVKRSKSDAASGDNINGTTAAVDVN

O=c1ccn([C@@H]2O[C@H](COP(=O)(O)NP(=O)(O)OP(=O)(O)O)[C@@H](O)[C@H]2O)c(=O)[nH]1 [Uridine-5′-[(α,β)-imido]triphosphate]
concentrations having little effect on controlling the RNA synthesis reaction [1]: below 0.8 mM | effect of higher concentrations of non-hydrolyzable ribonucleotide on rUTP incorporation [1]: significantly limited the total number of hydrolyzable rUTP incorporations

Nc1nc2c(ncn2[C@@H]2O[C@H](COP(=O)(O)OP(=O)(O)OP(=O)(O)O)[C@@H](O)[C@H]2O)c(=O)[nH]1 [rGTP]
incorporation of natural ribonucleotides by poly(U) polymerase [2]: has activity | effect of inorganic pyrophosphatase supplementation on RNA synthesis by poly(U) polymerase ([2]; 30 minutes at 37° C.): minimally affected

Nc1ccn([C@@H]2O[C@H](COP(=O)(O)OP(=O)(O)OP(=O)(O)O)[C@@H](O)[C@H]2O)c(=O)n1 [rCTP]
incorporation of natural ribonucleotides by poly(U) polymerase [2]: has activity | effect of inorganic pyrophosphatase supplementation on RNA synthesis by poly(U) polymerase ([2]; 30 minutes at 37° C.): minimally affected

C=CCO[C@@H]1[C@H](O)[C@@H](COP(=O)(O)OP(=O)(O)OP(=O)(O)O)O[C@H]1n1cnc2c(N)ncnc21 [2′-O-allyl-ATP]
controlled incorporation by S. cerevisiae poly(A) polymerase ([3]; nucleoside triphosphate 250 μM to 4000 μM): positive (n+1) incorporation | incorporation of reversible terminator by poly(U) polymerase ([4]; 1 mM, 30 minutes, initiator extended by one base): incorporated only a single | conversion rate of initiator (+0) to extension product (+1) ([4]; optimized conditions, 0.5 minutes): > 99% | time required to fully convert the initiator oligonucleotide (+0) to extension product (+1) ([4]; optimized conditions, poly-rU-15-mer 5′-Cy5): less than or equal to 0.5 minutes | conversion rate to the (+1) product [5]: > 99%

Nc1ncnc2c1ncn2[C@@H]1O[C@H](COP(=O)(O)OP(=O)(O)OP(=O)(O)O)[C@@H](O)[C@H]1O [rATP]
nucleotide concentration needed to produce a response similar to 200 μM of dATP (Human polymerase μ R387K): 5 mM | incorporation by polymerase μ R387K (Human polymerase μ R387K): can incorporate | effect of inorganic pyrophosphatase supplementation on RNA synthesis by poly(U) polymerase ([2]; 30 minutes at 37° C.): greatest enhancement

O=c1[nH]cc([C@@H]2O[C@H](COP(=O)(O)OP(=O)(O)OP(=O)(O)O)[C@@H](O)[C@H]2O)c(=O)[nH]1 [Pseudouridine, pseudouridine-5′-triphosphate]
length of RNA oligonucleotides produced ([2]; 2 mM, 1 mM, or 0.5 mM nucleotide, 0.1 units PPi-ase, 30 minutes at 37° C.): 30-45 nt

CO[C@@H]1[C@H](O)[C@@H](COP(=O)(O)OP(=O)(O)OP(=O)(O)O)O[C@H]1n1cnc2c(N)ncnc21 [2′-O-Methyl rATP, 2′-O-methyladenosine-5′-triphosphate]
incorporation by S. cerevisiae poly(A) polymerase [3]: incorporates

Nc1ncnc2c1ncn2[C@@H]1O[C@H](COP(=O)(O)OP(=O)(O)OP(=O)(O)O)[C@@H](O)[C@H]1F [2′-F-rATP, 2′-fluoro-2′-deoxyadenosine-5′-triphosphate]
incorporation by S. cerevisiae poly(A) polymerase [3]: incorporates

Nc1ncnc2c1ncn2[C@H]1C[C@H](O)[C@@H](COP(=O)(O)OP(=O)(O)OP(=O)(O)O)O1 [dATP]
incorporation by polymerase μ R387K (Human polymerase μ R387K): can incorporate

Nc1ncnc2c1ncn2[C@@H]1O[C@H](COP(=O)(O)OP(=O)(O)OP(=O)(O)O)[C@@H](O)[C@H]1N [2′-Amino-rATP, 2′-amino-2′-deoxyadenosine-5′-triphosphate]
incorporation by S. cerevisiae poly(A) polymerase [3]: incorporates

O=c1ccn([C@@H]2O[C@H](COP(=O)(O)OP(=O)(O)OP(=O)(O)O)[C@@H](O)[C@H]2O)c(=O)[nH]1 [rUTP]
effect of inorganic pyrophosphatase supplementation on RNA synthesis by poly(U) polymerase ([2]; 30 minutes at 37° C.): greatest enhancement

[N-]=[N+]=N[C@@H]1[C@H](O)[C@@H](COP(=O)(O)OP(=O)(O)OP(=O)(O)O)O[C@H]1n1cnc2c(N)ncnc21 [2′-Azido-rATP, 2′-azido-2′-deoxyadenosine-5′-triphosphate]
incorporation by S. cerevisiae poly(A) polymerase [3]: incorporates

From patent publication US20220145295A1, “ENZYMATIC RNA SYNTHESIS” (President and Fellows of Harvard College, priority 2018, published 2022)
